Source: ChEMBL document CHEMBL5500334, “Scaffold hopping derived novel benzoxazepinone receptor-interacting protein kinase 1 (RIP1) inhibitors as anti-necroptosis agents: Anti-inflammatory effect in systemic inflammatory response syndrome (SIRS) and epilepsy” (Eur J Med Chem, 2024)
Calls of active or inactive are those of the source. No cut-off for these calls is given here.

How the values were obtained:
[1] = AUC (0 to infinity) in Sprague-Dawley rat at 25 mg/kg, IG measured at 5 to 2880 mins by LC-MS/MS analysis; assay type: ADME, organism-based; details: in vivo, po, time 5-2880 min
[2] = target: T1, Mixed lineage kinase domain-like protein (Homo sapiens) (UniProt Q8NB16); assay: Inhibition of MLKL phosphorylation in TSZ-induced human HT-29 cells at 10 nM by Western blot analysis; assay type: cell-based; details: time <= 6.0 hrs, TDE = time-dependent effect
T1 sequence (whole entry): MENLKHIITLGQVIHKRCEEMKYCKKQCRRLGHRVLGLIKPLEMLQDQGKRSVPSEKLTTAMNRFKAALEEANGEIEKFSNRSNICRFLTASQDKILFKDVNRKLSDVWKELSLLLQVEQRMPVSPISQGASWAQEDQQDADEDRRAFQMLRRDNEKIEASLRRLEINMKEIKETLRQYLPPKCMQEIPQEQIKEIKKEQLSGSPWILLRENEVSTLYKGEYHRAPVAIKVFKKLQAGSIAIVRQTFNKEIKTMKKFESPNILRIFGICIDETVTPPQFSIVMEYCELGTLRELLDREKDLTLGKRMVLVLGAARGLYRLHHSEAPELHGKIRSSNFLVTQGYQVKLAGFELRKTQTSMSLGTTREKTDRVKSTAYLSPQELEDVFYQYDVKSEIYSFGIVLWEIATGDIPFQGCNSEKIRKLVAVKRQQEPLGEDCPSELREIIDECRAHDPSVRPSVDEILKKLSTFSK

[3] = AUC (0 to t) in Sprague-Dawley rat at 25 mg/kg, IG measured at 5 to 2880 mins by LC-MS/MS analysis; assay type: ADME, organism-based; details: in vivo, po, time 5-2880 min
HT-29 [4] = assay: Anti-necroptosis activity against human HT-29 cell assessed as inhibition of TSZ-induced necroptosis measured for 16 hrs by chemiluminescence assay; assay type: functional, cell-based; details: dose 0.305-156.25 µM
[5] = Half life in Sprague-Dawley rat at 25 mg/kg, IG measured at 5 to 2880 mins by LC-MS/MS analysis; assay type: ADME, organism-based; details: in vivo, po, time 5-2880 min
[6] = target: T2, Receptor-interacting serine/threonine-protein kinase 1 (Homo sapiens) (UniProt Q13546); details: HT-29, dose 10.0 nM, time 2-6 hrs, TDE = time-dependent effect
T2 sequence (whole entry): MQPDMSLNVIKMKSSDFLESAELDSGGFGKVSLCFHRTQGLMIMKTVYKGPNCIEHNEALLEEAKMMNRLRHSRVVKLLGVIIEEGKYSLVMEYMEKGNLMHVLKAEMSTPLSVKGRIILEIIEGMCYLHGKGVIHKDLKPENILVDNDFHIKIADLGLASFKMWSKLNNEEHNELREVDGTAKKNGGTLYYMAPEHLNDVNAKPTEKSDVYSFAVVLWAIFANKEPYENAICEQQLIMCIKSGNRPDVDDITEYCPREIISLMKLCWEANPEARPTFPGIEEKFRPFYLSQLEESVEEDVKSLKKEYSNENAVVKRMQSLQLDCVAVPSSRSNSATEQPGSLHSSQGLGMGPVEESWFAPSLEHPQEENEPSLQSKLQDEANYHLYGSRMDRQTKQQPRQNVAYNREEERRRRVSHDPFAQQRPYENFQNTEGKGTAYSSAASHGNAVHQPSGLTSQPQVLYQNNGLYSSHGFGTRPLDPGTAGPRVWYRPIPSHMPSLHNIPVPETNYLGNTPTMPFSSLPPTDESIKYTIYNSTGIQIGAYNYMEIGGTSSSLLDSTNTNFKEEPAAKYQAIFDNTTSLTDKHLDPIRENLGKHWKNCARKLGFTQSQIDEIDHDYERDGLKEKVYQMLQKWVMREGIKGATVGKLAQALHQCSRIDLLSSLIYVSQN
Description: Inhibition of RIP1 phosphorylation in TSZ-induced human HT-29 cells at 10 nM by Western blot analysis

Mus musculus [7] = assay: Protection against TNFalpha/Z-VAD-FMK-induced SIRS C57BL/6J mouse model assessed as reduction in body temperature loss at 0.625 to 2.5 mg/kg, po preincubated with compound for 1 hr followed by mTNF-alpha and Z-VAD-FMK addition and measured after 6 hrs by electric thermometer analysis; assay type: functional, organism-based; details: dose 0.625-2.5 mg/kg, time 7.0 hrs
Mus musculus [8] = assay: Protection against TNFalpha/Z-VAD-FMK-induced SIRS in po dosed C57BL/6J mouse model assessed as increase in survival rate preincubated with compound for 1 hr followed by mTNF-alpha and Z-VAD-FMK addition and measured after 6 hrs; assay type: functional, organism-based; details: dose 0.625-2.5 mg/kg, time 7.0 hrs
[9] = Apparent oral clearance in Sprague-Dawley rat at 25 mg/kg, IG measured at 5 to 2880 mins by LC-MS/MS analysis; assay type: ADME, organism-based; details: in vivo, time 5-2880 min
HT-29 [10] = assay: Cytotoxicity against human HT-29 cells; assay type: functional
[11] = MRT (0 to infinity) in Sprague-Dawley rat at 25 mg/kg, IG measured at 5 to 2880 mins by LC-MS/MS analysis; assay type: ADME, organism-based; details: in vivo, po, time 5-2880 min
Mus musculus [12] = assay: Protection against TNFalpha/Z-VAD-FMK-induced SIRS C57BL/6J mouse model assessed as reduction in IL-6 level in serum at 2.5 mg/kg, po preincubated with compound for 1 hr followed by mTNF-alpha and Z-VAD-FMK addition and measured after 2 hrs by ELISA analysis; assay type: functional, organism-based; details: time 3.0 hrs
[13] = target: Receptor-interacting serine/threonine-protein kinase 3 (Homo sapiens, UniProt Q9Y572); details: HT-29, dose 10.0 nM, time 2-6 hrs, TDE = time-dependent effect
Sequence of Receptor-interacting serine/threonine-protein kinase 3 (Q9Y572 whole entry, looked up): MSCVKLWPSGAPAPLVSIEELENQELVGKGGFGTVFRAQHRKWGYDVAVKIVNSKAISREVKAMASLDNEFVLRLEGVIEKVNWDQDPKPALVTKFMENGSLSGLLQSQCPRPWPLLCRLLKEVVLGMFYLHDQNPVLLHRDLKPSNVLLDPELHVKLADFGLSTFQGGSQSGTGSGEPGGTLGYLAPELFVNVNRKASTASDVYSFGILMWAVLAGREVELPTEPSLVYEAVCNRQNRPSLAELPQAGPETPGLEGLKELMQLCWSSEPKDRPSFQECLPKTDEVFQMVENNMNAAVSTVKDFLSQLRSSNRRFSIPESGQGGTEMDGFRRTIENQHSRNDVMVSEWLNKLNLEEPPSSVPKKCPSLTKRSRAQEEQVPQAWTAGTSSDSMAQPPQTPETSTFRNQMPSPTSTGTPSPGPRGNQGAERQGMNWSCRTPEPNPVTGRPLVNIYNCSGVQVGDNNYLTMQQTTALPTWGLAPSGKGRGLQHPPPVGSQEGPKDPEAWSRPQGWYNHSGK
Description: Inhibition of RIP3 phosphorylation in TSZ-induced human HT-29 cells at 10 nM by Western blot analysis

[14] = Tmax in Sprague-Dawley rat at 25 mg/kg, IG measured at 5 to 2880 mins by LC-MS/MS analysis; assay type: ADME, organism-based; details: in vivo, po, time 5-2880 min

SMILES: CN1C(=O)[C@@H](NC(=O)c2ccc3[nH]cc(-c4ccccc4)c3c2)COc2ccccc21
- AUC(0-inf) [1]: 32600 ng·h/mL
- inhibition [2]: Tde
- AUC(0-t) [3]: 25100 ng·h/mL
- Activity (HT-29 [4]): Dose-Dependent Effect
- half-life [5]: 32 h
- inhibition [6]: Tde
- Activity (Mus musculus [7]): Active
- Activity (Mus musculus [8]): Dose-Dependent Effect
- CL/F [9]: 14.9 mL/min/kg
- CC50 (HT-29 [10]): > 100 µM
- MRT inf [11]: 28.9 h
- Activity (Mus musculus [12]): Active
- inhibition [13]: Tde
- Tmax [14]: 2 h
